{
  "source": "patent US12522618B2",
  "about": "“Copper complexes for treatment of neurodegenerative disorders” (ALS Therapy Development Institute, priority 2020, dated 2026)",
  "key": {"SOD1^G93A mice [1]": {"test_system": "SOD1^G93A mice", "experiment": "Compound muscle action potential (CMAP) in SOD1^G93A mice", "type": "in vivo, mouse"}, "[2]": {"test_system": "transgenic mouse models of ALS", "conditions": "transgenic mice expressing human SOD1 with familial ALS mutations; cited from earlier work"}, "SOD1^G93A mice [3]": {"test_system": "SOD1^G93A mice", "experiment": "Disease onset (neuroscore NS2) and survival (NS4) in SOD1^G93A mice", "type": "in vivo, mouse", "conditions": "for Effect on disease onset / Effect on survival: male SOD1^G93A mice, 10 mg/kg or 30 mg/kg daily oral gavage, vs vehicle", "description": "The SOD1^G93A transgenic mouse model of ALS has been the most widely used animal model since the 1990s. The mouse was genetically engineered to overexpress a mutant form of the human Cu/Zn superoxide dismutase 1 (SOD1) gene harboring an ALS-associated glycine to alanine mutation at amino acid position 93 (G93A). These mice replicate many of the features of ALS, such as motor neuron loss, muscle wasting, progressive paralysis and decreased survival. Additionally, the SOD1^G93A mouse model has shown to be ideal for drug screening because of early onset of the disease and moderate progression.\nThe mice were treated with vehicle, 10 mg/kg or 30 mg/kg CuATSM or one of the derivatives: Compound 25 (2% DMSO, 10% KolliphorHS15), Compound 9 (0.5% methylcellulose), Compound 24 (0.5% methylcellulose, 0.4% TWEEN-80), and Compound 37 (0.5% methylcellulose, 0.4% TWEEN-80). Measurements were taken to assess compound muscle action potential (CMAP), neuroscore, and disease onset and survival.\nNeuroscore is a neurological scoring system based on visual observations of the hindlimb designed to assess the neuromuscular function of SOD1^G93A mice. The hindlimb is observed due to this being the earliest reported neurological sign of disease in SOD1^G93A mice. This method provides an unbiased assessment of onset of paresis (slight or partial paralysis) and the progression and severity of the paralysis. This method has also proven to be sensitive enough to identify drug-induced changes in disease progression. Neuroscore is assigned on a 0-4 scale corresponding to the following observations: NS0=the hindlimbs present with a normal splay; NS1=hindlimbs present with an abnormal splay; NS2=the hindlimbs show signs of paresis or are partially paralyzed; NS3=rigid paralysis in the hindlimbs; NS4=the mouse is unable to right itself up. These measurements were used in the current study to assess disease onset.\nThe onset of disease in the SOD1^G93A mice typically happens around age day 90-100, with mice eventually succumbing to the disease around age day 120-130. For comparison, a wild-type mouse of the same background may live up to 2 years. The onset of the disease in the current study was defined as the time to observe a neuroscore of NS2 in the mouse, while a neuroscore of a NS4 was considered to be the humane end-point. Reported p-values to illustrate statistical significant represent a log-rank test."}, "[4]": {"conditions": "male SOD1^G93A mice, 10 mg/kg or 30 mg/kg daily, four weeks, vs vehicle"}},
  "data": [
    {"molecule": "CCN/C1=N/N=C(c2ccc(CN3CCOCC3)o2)/C(C)=N/N=C(/NCC)[S][Cu][S]1", "note": "[Compound 24]", "values": [
      {"measurement": "CMAP values (change from baseline, % of baseline)", "setting": "SOD1^G93A mice [1]; male SOD1^G93A mice, 10 mg/kg or 30 mg/kg daily oral gavage, five weeks, vs control", "result": "did not significantly improve CMAP values"}
    ]},
    {"molecule": "CN=C([S-])N/N=C(C)/C(C)=N/NC([S-])=NC.[Cu+2]", "note": "[CuATSM, reference compound]", "values": [
      {"measurement": "CMAP change from baseline", "setting": "SOD1^G93A mice [1]; [4]", "result": "no differences"},
      {"measurement": "percent of baseline CMAP", "setting": "SOD1^G93A mice [1]; [4]", "result": "no differences"},
      {"measurement": "Protection in transgenic mouse models of ALS", "setting": "[2]", "result": "protective"}
    ]},
    {"molecule": "CCN/C1=N/N=C(c2ccc(CN3CCN(C)CC3)o2)/C(C)=N/N=C(/NCC)[S][Cu][S]1", "note": "[Compound 37]", "values": [
      {"measurement": "Effect on disease onset", "setting": "SOD1^G93A mice [3]", "result": "neither dose significantly affected"},
      {"measurement": "Effect on survival", "setting": "SOD1^G93A mice [3]", "result": "neither dose significantly affected"},
      {"measurement": "CMAP decline", "setting": "SOD1^G93A mice [1]; male SOD1^G93A mice, 10 mg/kg or 30 mg/kg daily oral gavage, four weeks", "result": "did not attenuate the CMAP decline"}
    ]},
    {"molecule": "CN/C1=N/N=C(c2ccco2)/C(C)=N/N=C(/NC)[S][Cu][S]1", "note": "[Compound 25]", "values": [
      {"measurement": "Survival efficacy study (onset of neurological disease, survival, body weight, neurological score)", "setting": "SOD1^G93A mice [3]; litter-matched, gender-balanced SOD1^G93A mice, chronic daily 30 mg/kg, vs control", "result": "displayed benefits"},
      {"measurement": "CMAP as a percentage of baseline", "setting": "SOD1^G93A mice [1]; SOD1^G93A mice, 10 mg/kg or 30 mg/kg daily oral gavage, 5 weeks, vs vehicle", "result": "significantly less change than the mice receiving vehicle"},
      {"measurement": "CMAP change from baseline", "setting": "SOD1^G93A mice [1]; SOD1^G93A mice, 10 mg/kg or 30 mg/kg daily oral gavage, five weeks, vs control", "result": "significant change in CMAP measurements from baseline compared to control mice"}
    ]},
    {"molecule": "CN/C1=N/N=C(C)/C(Cc2cccnc2)=N/N=C(/NC)[S][Cu][S]1", "note": "[Compound 9]", "values": [
      {"measurement": "Effect on disease onset", "setting": "SOD1^G93A mice [3]", "result": "did not significantly affect"},
      {"measurement": "Effect on survival", "setting": "SOD1^G93A mice [3]", "result": "did not significantly affect"}
    ]}
  ]
}
